{
  "source": "patent US8404692B2",
  "about": "“Pyrimidin-4-yl-3, 4-dihydro-2H-pyrrolo [1,2A] pyrazin-1-one compounds” (Cyclacel Limited, priority 2005, dated 2013)",
  "data": [
    {"target": "T1, aurora-A (human) (Homo sapiens, UniProt O14965)", "T1 construct": "purchased Upstate, Dundee, UK", "T1 sequence (O14965 1-403)": "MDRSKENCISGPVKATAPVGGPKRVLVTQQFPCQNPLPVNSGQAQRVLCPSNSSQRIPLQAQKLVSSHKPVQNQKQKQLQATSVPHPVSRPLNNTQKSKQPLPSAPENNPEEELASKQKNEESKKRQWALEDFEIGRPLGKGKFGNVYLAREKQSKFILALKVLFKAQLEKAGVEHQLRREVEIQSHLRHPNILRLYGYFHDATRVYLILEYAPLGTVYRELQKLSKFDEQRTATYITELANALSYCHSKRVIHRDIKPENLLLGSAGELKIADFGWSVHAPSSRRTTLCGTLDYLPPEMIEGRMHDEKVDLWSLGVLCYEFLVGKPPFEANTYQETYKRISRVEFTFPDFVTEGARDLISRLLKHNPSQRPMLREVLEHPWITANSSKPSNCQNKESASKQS", "assay": "Aurora-A (human) kinase assay", "format": "biochemical", "details": "read-out: Activity (Aurora A activity, IC50 grading)", "protocol": "This was achieved by measurement of incorporation of radioactive phosphate from ATP into Kemptide substrate (LRRASLG), upon phosphorylation by commercially obtained aurora-A (human, Upstate; Dundee, UK). Assays were performed using 96-well plates and appropriate assay buffers (20 mM Tris, 25 mM β-glycerophosphate, 5 mM EGTA, 1 mM DTT, 1 mM sodium vanadate, pH 7.5), into which were added 2-5 ng of active enzyme with 500 μM substrate (Kemptide). The reactions were initiated by addition of MATP mix (15 mM MgCl2+100 μM ATP with 15-25 kBq per well of [γ-^32P]-ATP) and mixtures incubated for 30 min at 30° C. Reactions were stopped by addition of an equal volume of 75 mM aq orthophosphoric acid, followed by filtration through p81 filterplates (Whatman Polyfiltronics, Kent, UK). After washing 4 times with 75 mM aq orthophosphoric acid, plates were dried, scintillant added and incorporated radioactivity measured in a scintillation counter (TopCount, Packard Instruments, Pangbourne, Berks, UK). Compounds for kinase assay were made up as 10 mM stocks in DMSO and diluted into 10% DMSO in assay buffer. Data was analysed using curve-fitting software (XLfit version 4.0.2, IDBS, Guildford, Surrey, UK) to determine IC50 values (concentration of test compound which inhibits kinase activity by 50%).", "units": {"IC50": "µM"}, "values": [
      {"smiles": "Cc1c(-c2ccnc(Nc3cccc(O)c3)n2)c(C)n2c1C(=O)NCC2", "note": "[Example I-31, 7-[2-(3-Hydroxy-phenylamino)-pyrimidin-4-yl]-6,8-dimethyl-3,4-dihydro-2H-pyrrolo[1,2-a]pyrazin-1-one]", "IC50": "< 1"},
      {"smiles": "Cc1c(-c2ccnc(Nc3cccc(S(C)(=O)=O)c3)n2)c(C)n2c1C(=O)NCC2", "note": "[Example I-32, 7-[2-(3-Methanesulfonyl-phenylamino)-pyrimidin-4-yl]-6,8-dimethyl-3,4-dihydro-2H-pyrrolo[1,2-a]pyrazin-1-one]", "IC50": "< 0.1"},
      {"smiles": "Cc1c(-c2ccnc(Nc3ccc(S(C)(=O)=O)cc3)n2)c(C)n2c1C(=O)NCC2", "note": "[Example I-33, 7-[2-(4-Methanesulfonyl-phenylamino)-pyrimidin-4-yl]-6,8-dimethyl-3,4-dihydro-2H-pyrrolo[1,2-a]pyrazin-1-one]", "IC50": "< 0.1"},
      {"smiles": "Cc1c(-c2ccnc(Nc3cccc(CCC(=O)O)c3)n2)c(C)n2c1C(=O)NCC2", "note": "[Example I-34, 3-{3-[4-(6,8-Dimethyl-1-oxo-1,2,3,4-tetrahydro-pyrrolo[1,2-a]pyrazin-7-yl)-pyrimidin-2-ylamino]-phenyl}-propionic acid]", "IC50": "< 0.1"},
      {"smiles": "Cc1c(-c2ccnc(Nc3cccc(S(=O)(=O)N4CCOCC4)c3)n2)c(C)n2c1C(=O)NCC2", "note": "[Example I-35, 8-Dimethyl-7-{2-[3-(morpholine-4-sulfonyl)-phenylamino]-pyrimidin-4-yl}-3,4-dihydro-2H-pyrrolo[1,2-a]pyrazin-1-one]", "IC50": "< 1"},
      {"smiles": "Cc1ccc(Nc2nccc(-c3c(C)c4n(c3C)CCNC4=O)n2)cc1S(=O)(=O)N1CCOCC1", "note": "[Example I-36, 6,8-Dimethyl-7-{2-[4-methyl-3-(morpholine-4-sulfonyl)-phenylamino]-pyrimidin-4-yl}-3,4-dihydro-2H-pyrrolo[1,2-a]pyrazin-1-one]", "IC50": "< 1"},
      {"smiles": "Cc1c(-c2ccnc(Nc3ccc(N4CCSCC4)cc3)n2)c(C)n2c1C(=O)NCC2", "note": "[Example I-37, 6,8-Dimethyl-7-[2-(4-thiomorpholin-4-yl-phenylamino)-pyrimidin-4-yl]-3,4-dihydro-2H-pyrrolo[1,2-a]pyrazin-1-one]", "IC50": "< 1"},
      {"smiles": "COCCNS(=O)(=O)c1ccc(Nc2nccc(-c3c(C)c4n(c3C)CCNC4=O)n2)cc1", "note": "[Example I-38, 4-[4-(6,8-Dimethyl-1-oxo-1,2,3,4-tetrahydro-pyrrolo[1,2-a]pyrazin-7-yl)-pyrimidin-2-ylamino]-N-(2-methoxy-ethyl)-benzenesulfonamide]", "IC50": "< 1"},
      {"smiles": "Cc1ccc(Nc2nccc(-c3c(C)c4n(c3C)CCNC4=O)n2)cc1", "note": "[Example I-39, 6,8-Dimethyl-7-(2-p-tolylamino-pyrimidin-4-yl)-3,4-dihydro-2H-pyrrolo[1,2-a]pyrazin-1-one]", "IC50": "< 1"},
      {"smiles": "Cc1c(-c2ccnc(Nc3ccc(C(C)C(=O)O)cc3)n2)c(C)n2c1C(=O)NCC2", "note": "(stereo not drawn) [Example I-40, 2-{4-[4-(6,8-Dimethyl-1-oxo-1,2,3,4-tetrahydro-pyrrolo[1,2-a]pyrazin-7-yl)-pyrimidin-2-ylamino]-phenyl}-propionic acid]", "IC50": "< 1"},
      {"smiles": "Cc1c(-c2ccnc(Nc3cccc(OCC(=O)O)c3)n2)c(C)n2c1C(=O)NCC2", "note": "[Example I-41, {3-[4-(6,8-Dimethyl-1-oxo-1,2,3,4-tetrahydro-pyrrolo[1,2-a]pyrazin-7-yl)-pyrimidin-2-ylamino]-phenoxy}-acetic acid]", "IC50": "< 0.1"},
      {"smiles": "Cc1c(-c2ccnc(Nc3cccc(NS(C)(=O)=O)c3)n2)c(C)n2c1C(=O)NCC2", "note": "[Example I-42, N-{3-[4-(6,8-Dimethyl-1-oxo-1,2,3,4-tetrahydro-pyrrolo[1,2-a]pyrazin-7-yl)-pyrimidin-2-ylamino]-phenyl}-methanesulfonamide]", "IC50": "< 1"},
      {"smiles": "CNS(=O)(=O)c1ccc(Nc2nccc(-c3c(C)c4n(c3C)CCNC4=O)n2)cc1OC", "note": "[Example I-43, 4-[4-(6,8-Dimethyl-1-oxo-1,2,3,4-tetrahydropyrrolo[1,2-a]pyrazin-7-yl)-pyrimidin-2-ylamino]-2-methoxy-N-methyl-benzenesulfonamide]", "IC50": "< 1"},
      {"smiles": "Cc1c(-c2ccnc(Nc3ccc(N4CCOC4=O)cc3)n2)c(C)n2c1C(=O)NCC2", "note": "[Example I-44, 6,8-Dimethyl-7-{2-[4-(2-oxo-oxazolidin-3-yl)-phenylamino]-pyrimidin-4-yl}-3,4-dihydro-2H-pyrrolo[1,2-a]pyrazin-1-one]", "IC50": "< 1"},
      {"smiles": "Cc1c(-c2ccnc(Nc3ccc4c(c3)COCO4)n2)c(C)n2c1C(=O)NCC2", "note": "[Example I-45, 7-[2-(4H-Benzo[1,3]dioxin-6-ylamino)-pyrimidin-4-yl]-6,8-dimethyl-3,4-dihydro-2H-pyrrolo[1,2-a]pyrazin-1-one]", "IC50": "< 0.1"},
      {"smiles": "Cc1nccc(-c2cccc(Nc3nccc(-c4c(C)c5n(c4C)CCNC5=O)n3)c2)n1", "note": "[Example I-46, 6,8-Dimethyl-7-{2-[3-(2-methyl-pyrimidin-4-yl)-phenylamino]-pyrimidin-4-yl}-3,4-dihydro-2H-pyrrolo[1,2-a]pyrazin-1-one]", "IC50": "< 0.1"},
      {"smiles": "CC(=O)Nc1ccc(Nc2nccc(-c3c(C)c4n(c3C)CCNC4=O)n2)cc1Cl", "note": "[Example I-47, N-{2-Chloro-4-[4-(6,8-dimethyl-1-oxo-1,2,3,4-tetrahydro-pyrrolo[1,2-a]pyrazin-7-yl)-pyrimidin-2-ylamino]-phenyl}-acetamide]", "IC50": "< 1"},
      {"smiles": "Cc1cc2cc(Nc3nccc(-c4c(C)c5n(c4C)CCNC5=O)n3)ccc2[nH]1", "note": "[Example I-48, 6,8-Dimethyl-7-[2-(2-methyl-1H-indol-5-ylamino)-pyrimidin-4-yl]-3,4-dihydro-2H-pyrrolo[1,2-a]pyrazin-1-one]", "IC50": "< 1"},
      {"smiles": "Cc1c(-c2ccnc(Nc3cccc(-c4cnco4)c3)n2)c(C)n2c1C(=O)NCC2", "note": "[Example I-49, 6,8-Dimethyl-7-[2-(3-oxazol-5-yl-phenylamino)-pyrimidin-4-yl]-3,4-dihydro-2H-pyrrolo[1,2-a]pyrazin-1-one]", "IC50": "< 1"},
      {"smiles": "Cc1c(-c2ccnc(Nc3ccc(S(=O)(=O)N4CCOCC4)cc3)n2)c(C)n2c1C(=O)NCC2", "note": "[Example I-50, 6,8-Dimethyl-7-{2-[4-(morpholine-4-sulfonyl)-phenylamino]-pyrimidin-4-yl}-3,4-dihydro-2H-pyrrolo[1,2-a]pyrazin-1-one]", "IC50": "< 1"},
      {"smiles": "Cc1c(-c2ccnc(Nc3ccc(OCCN4CCOCC4)cc3)n2)c(C)n2c1C(=O)NCC2", "note": "[Example I-51, 6,8-Dimethyl-7-{2-[4-(2-morpholin-4-yl-ethoxy)-phenylamino]-pyrimidin-4-yl}-3,4-dihydro-2H-pyrrolo[1,2-a]pyrazin-1-one]", "IC50": "< 1"},
      {"smiles": "Cc1c(-c2ccnc(Nc3ccc(-c4cnco4)cc3)n2)c(C)n2c1C(=O)NCC2", "note": "[Example I-52, 6,8-Dimethyl-7-[2-(4-oxazol-5-yl-phenylamino)-pyrimidin-4-yl]-3,4-dihydro-2H-pyrrolo[1,2-a]pyrazin-1-one]", "IC50": "< 1"},
      {"smiles": "Cc1c(-c2ccnc(Nc3cccc(-c4cncnc4)c3)n2)c(C)n2c1C(=O)NCC2", "note": "[Example I-53, 6,8-Dimethyl-7-[2-(3-pyrimidin-5-yl-phenylamino)-pyrimidin-4-yl]-3,4-dihydro-2H-pyrrolo[1,2-a]pyrazin-1-one]", "IC50": "< 0.1"},
      {"smiles": "Cc1c(-c2ccnc(Nc3ccc(Cc4ccncc4)cc3)n2)c(C)n2c1C(=O)NCC2", "note": "[Example I-54, 6,8-Dimethyl-7-[2-(4-pyridin-4-ylmethyl-phenylamino)-pyrimidin-4-yl]-3,4-dihydro-2H-pyrrolo[1,2-a]pyrazin-1-one]", "IC50": "< 1"}
    ]}
  ]
}
